Laboratory results taken from US20060069132A1, “Azolecarboxamide herbicides” (priority 2004, published 2006).

Columns and labels:
Experiment in all cases: Test C pre-/postemergence herbicide test
[1] = system: goosegrass; type: in vivo, Eleusine indica; conditions: for Plant response rating (0 = no effect, 100 = complete control), Goosegrass: 125 g ai/ha
How it was run: (§1)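 Visual injury scores run from 0 (no effect) to 100 (complete control), assessed relative to untreated controls 12 to 14 days after treatment in the greenhouse. Chemicals were formulated in a non-phytotoxic solvent mixture with surfactant and applied to soil after planting or to emerged plants at the 1- to 4-leaf stage.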

[2] = system: johnsongrass; type: in vivo, Sorghum halepense; conditions: for Plant response rating (0 = no effect, 100 = complete control), Johnsongrass: 125 g ai/ha
How it was run: as §1

[3] = system: common (oilseed) sunflower; type: in vivo, Helianthus annuus; conditions: for Plant response rating (0 = no effect, 100 = complete control), Sunflower: 125 g ai/ha
Excerpt: (§2) Seeds of plant species selected from bermudagrass (Cynodon dactylon (L.) Pers.), Surinam grass (Urochloa decumbens (Staph) R. D. Webster, previously named Brachiaria decumbens Stapf), cocklebur (Xanthium strumarium L.), corn (Zea mays L.), large crabgrass (Digitaria sanguinalis (L.) Scop.), woolly cupgrass (Eriochloa villosa (Thunb.) Kunth), giant foxtail (Setaria faberi Herrm.), goosegrass (Eleusine indica (L.) Gaertn.), johnsongrass (Sorghum halepense (L.) Pers.), kochia (Kochia scoparia (L.) Schrad.), lambsquarters (Chenopodium album L.), morningglory (Ipomoea coccinea L.), eastern black nightshade (Solanum ptycanthum Dunal), yellow nutsedge (Cyperus esculentus L.), pigweed (Amaranthus retroflexus L.), common ragweed (Ambrosia elatior L.), soybean (Glycine max (L.) Merr.), common (oilseed) sunflower (Helianthus annuus L.) and velvetleaf (Abutilon theophrasti Medik.) were planted and treated preemergence with test chemicals formulated in a non-phytotoxic solvent mixture which included a surfactant.
(§3) At the same time, plants selected from these crop and weed species and also winter barley (Hordeum vulgare L.), blackgrass (Alopecurus myosuroides Huds.), canarygrass (Phalaris minor Retz.), chickweed (Stellaria media (L.) Vill.), downy bromegrass (Bromus tectorum L.), green foxtail (Setaria viridis (L.) Beauv.), Italian ryegrass (Lolium multiflorum Lam.), wheat (Triticum aestivum L.), wild oat (Avenafatua L.) and windgrass (Apera spica-venti (L.) Beauv.) were treated with postemergence applications of some of the test chemicals formulated in the same manner. Plants ranged in height from 2 to 18 cm (1- to 4-leaf stage) for postemergence treatments. Plant species in the flooded paddy test consisted of rice (Oryza sativa), smallflower umbrella sedge (Cyperus difformis L.), ducksalad (Heteranthera limosa (Sw.) Willd.) and barnyardgrass (Echinochloa crus-galli (L.) Beauv.) grown to the 2-leaf stage for testing. Treated plants and controls were maintained in a greenhouse for 12 to 14 days, after which time all species were compared to controls and visually evaluated. Plant response ratings, summarized in Table C, are based on a scale of 0 to 100 where 0 is no effect and 100 is complete control. A dash (-) response means no test result.

[4] = system: woolly cupgrass; type: in vivo, Eriochloa villosa; conditions: for Plant response rating (0 = no effect, 100 = complete control), Cupgrass, Woolly: 125 g ai/ha
How it was run: as §1

[5] = system: soybean; type: in vivo, Glycine max; conditions: for Plant response rating (0 = no effect, 100 = complete control), Soybean: 125 g ai/ha
How it was run: as §1

[6] = system: Surinam grass; type: in vivo, Urochloa decumbens; conditions: for Plant response rating (0 = no effect, 100 = complete control), Surinam Grass: 125 g ai/ha
How it was run: as §1

[7] = system: eastern black nightshade; type: in vivo, Solanum ptycanthum; conditions: for Plant response rating (0 = no effect, 100 = complete control), Nightshade: 125 g ai/ha
Excerpt: as §2, §3

[8] = 62 g ai/ha, preemergence, scale 0 to 100
[9] = 250 g ai/ha, scale 0-100, preemergence
[10] = 500 g ai/ha, scale 0 to 100 (0 no effect, 100 complete control), visual, 12 to 14 days, preemergence

Compound: CCc1nn(C(C)(C)C)nc1C(=O)Nc1cccc(C(=S)N(C)C)c1 [Compound 395]
- Plant response rating, Goosegrass [1, 8]: 95
- Plant response rating (0 = no effect, 100 = complete control), Goosegrass ([1]; preemergence): 95
- Plant response rating, Goosegrass [1, 9]: 100
- Plant response rating, Goosegrass [1, 10]: 100
- Plant response rating, Johnsongrass [2, 8]: 95
- Plant response rating (0 = no effect, 100 = complete control), Johnsongrass ([2]; preemergence): 100
- Plant response rating, Johnsongrass [2, 9]: 100
- Plant response rating, Johnsongrass [2, 10]: 100
- Plant response rating, Sunflower [3, 8]: 0
- Plant response rating (0 = no effect, 100 = complete control), Sunflower ([3]; preemergence): 0
- Plant response rating, Sunflower [3, 9]: 50
- Plant response rating, Sunflower [3, 10]: 55
- Plant response rating, Cupgrass, Woolly [4, 8]: 85
- Plant response rating (0 = no effect, 100 = complete control), Cupgrass, Woolly ([4]; preemergence): 95
- Plant response rating, Cupgrass, Woolly [4, 9]: 100
- Plant response rating, Cupgrass, Woolly [4, 10]: 100
- Plant response rating, Soybean [5, 8]: 75
- Plant response rating (0 = no effect, 100 = complete control), Soybean ([5]; preemergence): 85
- Plant response rating, Soybean [5, 9]: 100
- Plant response rating, Soybean [5, 10]: 100
- Plant response rating, Surinam Grass [6, 8]: 95
- Plant response rating (0 = no effect, 100 = complete control), Surinam Grass ([6]; preemergence): 100
- Plant response rating, Surinam Grass [6, 9]: 100
- Plant response rating, Surinam Grass [6, 10]: 100
- Plant response rating, Nightshade [7, 8]: 100
- Plant response rating (0 = no effect, 100 = complete control), Nightshade ([7]; preemergence): 100
- Plant response rating, Nightshade [7, 9]: 100
- Plant response rating, Nightshade [7, 10]: 100

Compound: CCc1nn(C(C)(C)C)nc1C(=S)Nc1cccc(C(=S)N(C)C)c1 [Compound 396]
- Plant response rating, Goosegrass [1, 8]: 95
- Plant response rating (0 = no effect, 100 = complete control), Goosegrass ([1]; preemergence): 100
- Plant response rating, Goosegrass [1, 9]: 100
- Plant response rating, Goosegrass [1, 10]: 100
- Plant response rating, Johnsongrass [2, 8]: 95
- Plant response rating (0 = no effect, 100 = complete control), Johnsongrass ([2]; preemergence): 100
- Plant response rating, Johnsongrass [2, 9]: 100
- Plant response rating, Johnsongrass [2, 10]: 100
- Plant response rating, Sunflower [3, 8]: 0
- Plant response rating (0 = no effect, 100 = complete control), Sunflower ([3]; preemergence): 0
- Plant response rating, Sunflower [3, 9]: 0
- Plant response rating, Sunflower [3, 10]: 15
- Plant response rating, Cupgrass, Woolly [4, 8]: 60
- Plant response rating (0 = no effect, 100 = complete control), Cupgrass, Woolly ([4]; preemergence): 90
- Plant response rating, Cupgrass, Woolly [4, 9]: 100
- Plant response rating, Cupgrass, Woolly [4, 10]: 100
- Plant response rating, Soybean [5, 8]: 0
- Plant response rating (0 = no effect, 100 = complete control), Soybean ([5]; preemergence): 75
- Plant response rating, Soybean [5, 9]: 100
- Plant response rating, Soybean [5, 10]: 100
- Plant response rating, Surinam Grass [6, 8]: 65
- Plant response rating (0 = no effect, 100 = complete control), Surinam Grass ([6]; preemergence): 95
- Plant response rating, Surinam Grass [6, 9]: 100
- Plant response rating, Surinam Grass [6, 10]: 100
- Plant response rating, Nightshade [7, 8]: 95
- Plant response rating (0 = no effect, 100 = complete control), Nightshade ([7]; preemergence): 100
- Plant response rating, Nightshade [7, 9]: 100
- Plant response rating, Nightshade [7, 10]: 100

Compound: CCn1nc2c(c1C(=O)Nc1cc(C(=O)N(C)C)ccc1F)CCC2(C)C [Compound 352, N-[5-[(dimethylamino)carbonyl]-2-fluorophenyl]-2-ethyl-2,4,5,6-tetrahydro-6,6-dimethyl-3-cyclopentapyrazolecarboxamide]
- Plant response rating (0 = no effect, 100 = complete control), Goosegrass ([1]; preemergence): 85
- pest or weed control at 62 g/ha ([1]; Eleusine indica, pre-emergence, 312 h, 62 g ai/ha, preemergence, scale 0 to 100, read-out: Plant response rating, Goosegrass): 80%
- pest or weed control at 250 g/ha ([1]; Eleusine indica, pre-emergence, 312 h, 250 g ai/ha, scale 0-100, read-out: Plant response rating, Goosegrass): 100%
- pest or weed control at 500 g/ha ([1]; Eleusine indica, pre-emergence, 312 h, 500 g ai/ha, scale 0 to 100 (0 no effect, 100 complete control), visual, 12 to 14 days, read-out: Plant response rating, Goosegrass): 100%
- Plant response rating (0 = no effect, 100 = complete control), Johnsongrass ([2]; preemergence): 90
- pest or weed control at 62 g/ha ([2]; Sorghum halepense, pre-emergence, 62 g ai/ha, preemergence, scale 0 to 100, read-out: Plant response rating, Johnsongrass): 50%
- pest or weed control at 250 g/ha ([2]; Sorghum halepense, pre-emergence, 250 g ai/ha, scale 0-100, read-out: Plant response rating, Johnsongrass): 90%
- pest or weed control at 500 g/ha ([2]; Sorghum halepense, pre-emergence, 500 g ai/ha, scale 0 to 100 (0 no effect, 100 complete control), visual, 12 to 14 days, read-out: Plant response rating, Johnsongrass): 100%
- Plant response rating (0 = no effect, 100 = complete control), Sunflower ([3]; preemergence): 0
- pest or weed control at 62 g/ha ([3]; Helianthus annuus, pre-emergence, 62 g ai/ha, preemergence, scale 0 to 100, read-out: Plant response rating, Sunflower): 0%
- pest or weed control at 250 g/ha ([3]; Helianthus annuus, pre-emergence, 250 g ai/ha, scale 0-100, read-out: Plant response rating, Sunflower): 0%
- pest or weed control at 500 g/ha ([3]; Helianthus annuus, pre-emergence, 500 g ai/ha, scale 0 to 100 (0 no effect, 100 complete control), visual, 12 to 14 days, read-out: Plant response rating, Sunflower): 0%
- Plant response rating (0 = no effect, 100 = complete control), Cupgrass, Woolly ([4]; preemergence): 50
- pest or weed control at 62 g/ha ([4]; Eriochloa villosa, pre-emergence, 312 h, 62 g ai/ha, preemergence, scale 0 to 100, read-out: Plant response rating, Cupgrass, Woolly): 5%
- pest or weed control at 250 g/ha ([4]; Eriochloa villosa, pre-emergence, 312 h, 250 g ai/ha, scale 0-100, read-out: Plant response rating, Cupgrass, Woolly): 60%
- pest or weed control at 500 g/ha ([4]; Eriochloa villosa, pre-emergence, 312 h, 500 g ai/ha, scale 0 to 100 (0 no effect, 100 complete control), visual, 12 to 14 days, read-out: Plant response rating, Cupgrass, Woolly): 85%
- Plant response rating (0 = no effect, 100 = complete control), Soybean ([5]; preemergence): 15
- plant injury at 62 g/ha ([5]; Glycine max, pre-emergence, 62 g ai/ha, preemergence, scale 0 to 100, read-out: Plant response rating, Soybean): 0%
- plant injury at 250 g/ha ([5]; Glycine max, pre-emergence, 250 g ai/ha, scale 0-100, read-out: Plant response rating, Soybean): 50%
- plant injury at 500 g/ha ([5]; Glycine max, pre-emergence, 500 g ai/ha, scale 0 to 100 (0 no effect, 100 complete control), visual, 12 to 14 days, read-out: Plant response rating, Soybean): 70%
- Plant response rating (0 = no effect, 100 = complete control), Surinam Grass ([6]; preemergence): 50
- pest or weed control at 62 g/ha ([6]; Urochloa decumbens, pre-emergence, 312 h, 62 g ai/ha, preemergence, scale 0 to 100, read-out: Plant response rating, Surinam Grass): 10%
- pest or weed control at 250 g/ha ([6]; Urochloa decumbens, pre-emergence, 312 h, 250 g ai/ha, scale 0-100, read-out: Plant response rating, Surinam Grass): 100%
- pest or weed control at 500 g/ha ([6]; Urochloa decumbens, pre-emergence, 312 h, 500 g ai/ha, scale 0 to 100 (0 no effect, 100 complete control), visual, 12 to 14 days, read-out: Plant response rating, Surinam Grass): 100%
- Plant response rating (0 = no effect, 100 = complete control), Nightshade ([7]; preemergence): 0
- pest or weed control at 62 g/ha ([7]; pre-emergence, 62 g ai/ha, preemergence, scale 0 to 100, read-out: Plant response rating, Nightshade): 0%
- pest or weed control at 250 g/ha ([7]; pre-emergence, 250 g ai/ha, scale 0-100, read-out: Plant response rating, Nightshade): 50%
- pest or weed control at 500 g/ha ([7]; pre-emergence, 500 g ai/ha, scale 0 to 100 (0 no effect, 100 complete control), visual, 12 to 14 days, read-out: Plant response rating, Nightshade): 100%

Compound: C=CCNC(=O)c1cccc(NC(=O)c2nn(C(C)(C)C)nc2CC)c1 [Compound 414]
- Plant response rating, Goosegrass [1, 8]: 95
- Plant response rating (0 = no effect, 100 = complete control), Goosegrass ([1]; preemergence): 100
- Plant response rating, Goosegrass [1, 9]: 100
- Plant response rating, Goosegrass [1, 10]: 100
- Plant response rating, Johnsongrass [2, 8]: 95
- Plant response rating (0 = no effect, 100 = complete control), Johnsongrass ([2]; preemergence): 95
- Plant response rating, Johnsongrass [2, 9]: 100
- Plant response rating, Johnsongrass [2, 10]: 100
- Plant response rating, Sunflower [3, 8]: 0
- Plant response rating (0 = no effect, 100 = complete control), Sunflower ([3]; preemergence): 0
- Plant response rating, Sunflower [3, 10]: 0
- Plant response rating, Cupgrass, Woolly [4, 8]: 0
- Plant response rating (0 = no effect, 100 = complete control), Cupgrass, Woolly ([4]; preemergence): 80
- Plant response rating, Cupgrass, Woolly [4, 9]: 95
- Plant response rating, Cupgrass, Woolly [4, 10]: 100
- Plant response rating, Soybean [5, 8]: 0
- Plant response rating (0 = no effect, 100 = complete control), Soybean ([5]; preemergence): 20
- Plant response rating, Soybean [5, 10]: 65
- Plant response rating, Surinam Grass [6, 8]: 0
- Plant response rating (0 = no effect, 100 = complete control), Surinam Grass ([6]; preemergence): 80
- Plant response rating, Surinam Grass [6, 10]: 100
- Plant response rating, Nightshade [7, 8]: 85
- Plant response rating (0 = no effect, 100 = complete control), Nightshade ([7]; preemergence): 90
- Plant response rating, Nightshade [7, 10]: 100
